The record followed here is patent publication US9012497B2, “Cyclohexyl carbamate compounds as active anti-cellulite ingredients” (Symrise AG, priority 2010, dated 2015).

In one assay the target is T1, pancreatic lipase (PL) (Sus scrofa, UniProt P00591).
T1 construct: purchased Sigma-Aldrich
T1 sequence (P00591 1-450): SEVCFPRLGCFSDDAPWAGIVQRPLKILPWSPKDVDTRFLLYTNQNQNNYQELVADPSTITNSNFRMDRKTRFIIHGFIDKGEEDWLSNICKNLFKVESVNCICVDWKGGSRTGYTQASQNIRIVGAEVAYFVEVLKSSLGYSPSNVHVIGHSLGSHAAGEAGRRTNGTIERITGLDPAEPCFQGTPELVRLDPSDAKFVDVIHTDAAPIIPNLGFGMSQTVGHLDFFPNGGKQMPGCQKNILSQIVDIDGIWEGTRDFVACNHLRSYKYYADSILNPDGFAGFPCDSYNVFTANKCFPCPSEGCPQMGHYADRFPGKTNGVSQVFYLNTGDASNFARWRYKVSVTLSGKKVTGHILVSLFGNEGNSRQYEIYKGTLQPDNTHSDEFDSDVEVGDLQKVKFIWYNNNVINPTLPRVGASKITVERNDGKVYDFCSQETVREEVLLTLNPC
Kind of assay: Inhibition of PL, MUF oleate hydrolysis. It counts as biochemical. As to conditions: mean values of at least 2 independent tests. The source says:
(§1) Lipogenesis is perceived as the storage of triglycerides in adipocytes. The inhibition of this storage can take place by means of the inhibition of the activity of extracellular lipoprotein lipase (LPL) in that the hydrolysis of extracellular triglycerides and therefore the absorption of free fatty acids by adipocytes are reduced. As a preliminary test, the inhibition of pancreatic lipase (PL) is investigated.
PL (Sigma-Aldrich), in the presence of test substances in different use concentrations has methylumbelliferyl oleate (MUF oleate) added as a substrate. Fluorescent methylumelliferon (MUF), is produced by hydrolysis of the MUF oleate by PL and is quantified. The inhibition of the hydrolysis of the MUF oleate is a measure of the inhibition of activity of the PL.
[formula] wherein MUF test substance=MUF concentration of the wells with test substance and with PL MUF control=MUF concentration of the wells without test substance, but with PL MUF control without PL=MUF concentration of the wells without test substance and without PL
The IC50 is calculated from the inhibition of the PL [%] in a series of dilutions of tested samples. This is the concentration, at which the activity of the PL is 50% inhibited.

The test system of assay [1] is 3T3-L1 cells. Briefly: Lipolysis assay, in vitro on 3T3-L1 cells, free glycerol release. It counts as cell-based. The note with it: Mus musculus; differentiated 3T3-L1 cells, about 20 hours of incubation; mean values from at least 2 independent tests; read-out: Stimulation of lipolysis EC50. The method, then: 3T3-L1 cells (mouse embryonic fibroblast-like adipocyte cell line) are seeded in a 48-well plate with collagen I-coating in a concentration of 3×10^4 cells/well. The cultivation and differentiation of the cells takes place analogously to the details in Example 2 (adipogenesis assay).
Various concentrations of the test substances are applied to the cells in DMEM, with bovine serum albumen added. After about 20 hours of incubation, the quantification of free glycerol in the supernatant of the cells takes place, which is released by the cells after hydrolysis of triglycerides in the cells and is a measure of the lipolysis of the cells. The quantification of the free glycerol is carried out based on an enzymatic method with a free glycerol reagent.
The stimulation of the lipolysis in the presence of test substances is calculated according to the following equation:
[formula] wherein A test substance=absorption of the wells with test substance and with cells A test substance without cells=absorption of the wells with test substance without cells (absorption control) A control=absorption of the wells without test substance, but with cells A control without cells=absorption of the wells without test substance and without cells
The EC50 is calculated from the lipolysis stimulation [%] in a series of dilutions of tested samples. This is the concentration at which the lipolysis is 50% stimulated.

The subject of assay [2] is 3T3-L1 cells. Briefly: Adipogenesis assay (in vitro), Nile Red lipid staining. The note with it: Mus musculus, mean values of at least 2 independent tests, read-out: Adipogenesis inhibition IC50. It counts as cell-based. The method, then: 3T3-L1 cells (mouse embryonic fibroblast-like adipocyte cell line) are seeded in a 48-well plate with collagen I-coating in a concentration of 3×10^4 cells/well. After 72 h cultivation at 37° C. and 5% CO2 in DMEM (Dulbecco's Modified Eagle Medium), enriched with 10% calf serum, various concentrations of the test substances in DMEM, enriched with 10% foetal calf serum and to which are added 1 μg/ml insulin, 0.25 μM dexamethasone and 0.5 mM IBMX (3-isobutyl-1-methylxanthine), are added and incubated for a further 48 h. A media change takes place, in that DMEM, enriched with 10% foetal calf serum and with 1 μg/ml insulin added, are applied. After renewed cultivation for 48 h, a further media change takes place, in which DMEM, enriched with 10% foetal calf serum, is applied.
After a further incubation for 72 h, the intracellularly stored lipids are quantified as a measure for the differentiation of the cells by measuring the fluorescence after staining of the lipids with the fluorescent dye Nile Red.
The inhibition of the adipogenesis in the presence of the test substances is calculated according to the following equation:
[formula] wherein RFU test substance=relative fluorescent units of the wells with test substance and with cells RFU control=relative fluorescent units of the wells without test substance, but with cells RFU control without cells=relative fluorescent units of the wells without test substance and without cells The IC50 is calculated from the adipogenesis inhibition [%] in a series of dilutions of tested samples. This is the concentration at which the adipogenesis is 50% inhibited.

Another assay has as its target T2, lipoprotein lipase (LPL) (Mus musculus, UniProt P11152).
T2 construct: endogenous in cells; host or cells: differentiated 3T3-L1 cells (mouse); heparin-released supernatant
T2 sequence (P11152 28-474): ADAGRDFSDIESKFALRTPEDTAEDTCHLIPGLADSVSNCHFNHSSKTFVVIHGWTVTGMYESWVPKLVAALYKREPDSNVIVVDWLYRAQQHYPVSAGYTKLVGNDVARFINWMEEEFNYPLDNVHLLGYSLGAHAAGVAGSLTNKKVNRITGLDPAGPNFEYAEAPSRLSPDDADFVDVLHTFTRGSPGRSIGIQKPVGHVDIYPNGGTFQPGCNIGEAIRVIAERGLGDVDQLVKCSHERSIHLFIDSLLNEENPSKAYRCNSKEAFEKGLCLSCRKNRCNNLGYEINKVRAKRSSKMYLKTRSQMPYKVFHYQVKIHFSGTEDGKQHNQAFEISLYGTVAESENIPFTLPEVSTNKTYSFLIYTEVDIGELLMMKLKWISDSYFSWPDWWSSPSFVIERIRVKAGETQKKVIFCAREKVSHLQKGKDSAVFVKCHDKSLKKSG
Kind of assay: Inhibition of LPL (lipogenesis assay), MUF oleate hydrolysis. In kind it is biochemical. As to conditions: LPL obtained from differentiated 3T3-L1 cells; mean values of at least 2 independent tests.
Excerpt: as §1
The results of the inhibition of the PL are used as a preliminary test and are confirmed on LPL. To obtain LPL, 3T3-L1 cells (mouse embryonic fibroblast-like adipocyte cell line) are seeded in a 6-well plate with collagen I-coating in a concentration of 3×10^5 cells/well. The cultivation and differentiation of the cells takes place analogously to the details in Example 2 (adipogenesis assay). During the differentiation LPL is increasingly expressed. The LPL is present in a membrane-bound state and is released by one hour incubation with heparin solution at 2-8° C. to the supernatant of the cells.
The LPL thus obtained, in the presence of test substances in different use concentrations, has methylumbelliferyl oleate (MUF oleate) added as the substrate. Fluorescent methylumbelliferyl (MUF) is produced by hydrolysis of the MUF oleate by LPL and is quantified. The inhibition of the hydrolysis of the MUF oleate is a measure of the inhibition of the activity of the LPL and therefore the lipogenesis.
[formula] wherein MUF test substance=MUF concentration of the wells with test substance and with LPL MUF control=MUF concentration of the wells without test substance, but with LPL MUF control without LPL=MUF concentration of the wells without test substance and without LPL
The IC50 is calculated from the inhibition of the LPL [%] in a series of dilutions of tested samples. This is the concentration at which the activity of the LPL and therefore the lipogenesis is 50% inhibited.

As for `CCNC(=O)OC1CC(C)CC(C)C1` (mixture of isomers) [BIO1561, Ethyl-carbamic acid 3,5-dimethyl-cyclohexyl ester], the IC50 against pancreatic lipase (PL) was 400 µM.

With `CCNC(=O)OC1CCC(C(C)C)C(C)C1` (stereo not shown) [BIO1560, Ethyl-carbamic acid 4-isopropyl-3-methyl-cyclohexyl ester], on pancreatic lipase (PL), the IC50 is 560 µM.

`CCNC(=O)OC1CC2CCC1(C)C2(C)C` (stereo not shown) [BIO1573, Ethyl-carbamic acid 1,7,7-trimethyl-bicyclo[2.2.1]hept-2-yl ester]: the EC50 in the assay on 3T3-L1 cells [1] is 350 µM.

Turning to `CCNC(=O)OC1CCCC(C)C1C` (stereo not shown) [BIO1581, Ethyl-carbamic acid 2,3-dimethyl-cyclohexyl ester], the IC50 with 3T3-L1 cells [2] was 160 µM; against pancreatic lipase (PL) it was 240 µM.

`CCNC(=O)OC1CCC(C)C(C)C1` (stereo not shown) [BIO1582, Ethyl-carbamic acid 3,4-dimethyl-cyclohexyl ester] displayed an IC50 against pancreatic lipase (PL) of 420 µM.

Consider `C=C(C)C1CCC(C)CC1OC(=O)NCCCC` (stereo not shown) [BIO1615, Butyl-carbamic acid 2-isopropenyl-5-methyl-cyclohexyl ester], for which the results for the IC50 in the assay on 3T3-L1 cells [2], against pancreatic lipase (PL) and against lipoprotein lipase (LPL) were 160 µM, 340 µM and 870 µM, respectively. Besides, in the assay on 3T3-L1 cells [1], the EC50 is 820 µM.

Take `CC1CCCC(OC(=O)Nc2ccccc2O)C1C` (stereo not shown) [BIO1643, (2-Hydroxy-phenyl)-carbamic acid 2,3-dimethyl-cyclohexyl ester]: the results for the IC50 with 3T3-L1 cells [2] and on pancreatic lipase (PL) were 14 µM and 420 µM, respectively.

Turning to `CC1CC(C)CC(OC(=O)Nc2ccccc2)C1` (stereo not shown) [BIO1685, Phenyl-carbamic acid 3,5-dimethyl-cyclohexyl ester], the IC50 in the assay on 3T3-L1 cells [2] worked out at 340 µM. Besides, the EC50 in the assay with 3T3-L1 cells [1] came to 600 µM.

As for `COc1ccccc1NC(=O)OC1C(C)CCC(C)C1C` (stereo not shown) [BIO1701, (2-Methoxy-phenyl)-carbamic acid 2,3,6-trimethyl-cyclohexyl ester], the results for the IC50 with 3T3-L1 cells [2] and against pancreatic lipase (PL) were 110 µM and 470 µM, respectively.

Turning to `COc1ccccc1NC(=O)OC1CC(C)CC(C)(C)C1` (stereo not shown) [BIO1703, (2-Methoxy-phenyl)-carbamic acid 3,3,5-trimethyl-cyclohexyl ester], the IC50 in the assay with 3T3-L1 cells [2] was 51 µM; at pancreatic lipase (PL), 1860 µM.

As for `O=C(Nc1ccccc1)OC1CCCCC1` [BIO1741, Phenyl-carbamic acid cyclohexyl ester], in the assay with 3T3-L1 cells [2], the IC50 came out at 440 µM. Also, the EC50 in the assay on 3T3-L1 cells [1] worked out at 360 µM.

`CC1CC(C)CC(OC(=O)NC2CCCCC2)C1` (stereo not shown) [BIO1743, Cyclohexyl-carbamic acid 3,5-dimethyl-cyclohexyl ester]: the IC50 in the assay on 3T3-L1 cells [2] was 91 µM. The EC50 in the assay with 3T3-L1 cells [1] came to 1890 µM.

Consider `COc1ccccc1NC(=O)OC1CCCCC1C(C)C` (stereo not shown) [BIO1744, (2-Methoxy-phenyl)-carbamic acid 2-isopropyl-cyclohexyl ester], for which the IC50 at pancreatic lipase (PL) is 230 µM.

On to `CC1CC(C)CC(OC(=O)NCc2ccccc2)C1` (stereo not shown) [BIO1745, Benzyl-carbamic acid 3,5-dimethyl-cyclohexyl ester], for which the IC50 is 120 µM in the assay with 3T3-L1 cells [2] and 130 µM against pancreatic lipase (PL).

On to `CC(C)(C)C1CCC(OC(=O)NC2CCCCC2)CC1` (stereo not shown) [BIO1747, Cyclohexyl-carbamic acid 4-tert-butyl-cyclohexyl ester], for which, in the assay on 3T3-L1 cells [2], the IC50 is 120 µM. In addition, the EC50 with 3T3-L1 cells [1] was 610 µM.

`CC(C)C1CCCCC1OC(=O)NCc1ccccc1` (stereo not shown) [BIO1748, Benzyl-carbamic acid 2-isopropyl-cyclohexyl ester]: the IC50 in the assay with 3T3-L1 cells [2] amounted to 59 µM; on pancreatic lipase (PL), 2170 µM. Besides, the EC50 in the assay with 3T3-L1 cells [1] stood at 810 µM.

At pancreatic lipase (PL), `CCCCNC(=O)OC1CCCC(C)C1` (stereo not shown) [BIO1821, Butyl-carbamic acid 3-methyl-cyclohexyl ester] had an IC50 of 510 µM.

For `Cc1ccc(NC(=O)OC2CC(C)CC(C)C2)cc1` (stereo not shown) [BIO1822, p-Tolyl-carbamic acid 3,5-dimethyl-cyclohexyl ester], the IC50 in the assay on 3T3-L1 cells [2] worked out at 170 µM.

Regarding `Cc1ccc(NC(=O)OC2CCCCC2C(C)C)cc1` (stereo not shown) [BIO1824, p-Tolyl-carbamic acid 2-isopropyl-cyclohexyl ester], in the assay on 3T3-L1 cells [2], the IC50 stood at 92 µM. The EC50 in the assay on 3T3-L1 cells [1] turned out to be 510 µM.

Consider `CCCCNC(=O)OC1CC(C)CC(C)C1` (stereo not shown) [BIO1840, Butyl-carbamic acid 3,5-dimethyl-cyclohexyl ester], for which the IC50 in the assay with 3T3-L1 cells [2] was found to be 160 µM; on pancreatic lipase (PL), 550 µM. Moreover, in the assay on 3T3-L1 cells [1], the EC50 worked out at 700 µM.

With `CCCCNC(=O)OC1CCCC(C)C1C` (stereo not shown) [BIO1842, Butyl-carbamic acid 2,3-dimethyl-cyclohexyl ester], the IC50 came out at 150 µM in the assay with 3T3-L1 cells [2] and 670 µM at pancreatic lipase (PL). In addition, the EC50 in the assay with 3T3-L1 cells [1] was 230 µM.

As for `CCCCCCNC(=O)OC1CC(C)CC(C)(C)C1` (stereo not shown) [BIO1850, Hexyl-carbamic acid 3,3,5-trimethyl-cyclohexyl ester], the IC50 was 360 µM in the assay with 3T3-L1 cells [2], 520 µM against pancreatic lipase (PL) and 680 µM at lipoprotein lipase (LPL).

`CCCCCCNC(=O)OC1CCCCC1C(C)C` (stereo not shown) [BIO1851, Hexyl-carbamic acid 2-isopropyl-cyclohexyl ester]: the IC50 in the assay with 3T3-L1 cells [2] worked out at 86 µM; against pancreatic lipase (PL), 1240 µM. In addition, the EC50 in the assay on 3T3-L1 cells [1] is 1170 µM.

Broadly, the IC50 is the midpoint of a concentration-inhibition curve. The EC50 is the concentration needed to bring the measured effect to its halfway point.
